This is an account of results in patent publication US8791132B2, “Compounds and methods for treatment of hypertension” (Medivation Technologies, Inc., priority 2011, dated 2014).

For test [1], the target named is T1, human Adrenergic a2A receptor (Homo sapiens, UniProt P08913).
T1 construct: purchased Euroscreen FAST-006G
T1 sequence (P08913 1-465): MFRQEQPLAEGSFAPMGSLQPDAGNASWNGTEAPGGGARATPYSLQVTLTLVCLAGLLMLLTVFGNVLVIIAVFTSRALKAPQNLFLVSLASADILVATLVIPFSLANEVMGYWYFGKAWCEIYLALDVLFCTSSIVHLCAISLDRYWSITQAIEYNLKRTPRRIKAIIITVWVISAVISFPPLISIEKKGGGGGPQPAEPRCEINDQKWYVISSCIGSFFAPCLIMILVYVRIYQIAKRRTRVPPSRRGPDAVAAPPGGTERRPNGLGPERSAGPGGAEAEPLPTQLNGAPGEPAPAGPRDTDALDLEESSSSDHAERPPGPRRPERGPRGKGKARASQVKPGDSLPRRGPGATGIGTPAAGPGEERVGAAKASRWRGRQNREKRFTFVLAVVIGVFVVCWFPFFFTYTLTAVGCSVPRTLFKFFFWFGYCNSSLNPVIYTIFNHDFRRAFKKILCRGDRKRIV
In words: Inverse agonist activity, GTPg35S binding functional assay (FAST-006G). Format: biochemical. The conditions noted are these: dose-response, duplicates (FIG. 28). As to the method: SPA 35S-GTPgS and Radioligand Binding experiments were conducted with Euroscreen membrane preparations. Compound was tested for inverse agonist activity at the human Adrenergic a2A receptor using GTPg35S binding functional assay (FAST-006G) in dose-response and in duplicates.

In test [2] the target is T2, human recombinant adrenergic α1D receptor (Homo sapiens, UniProt P25100).
T2 construct: expressed in transfected cells; host or cells: HEK-293
T2 sequence (P25100 1-572): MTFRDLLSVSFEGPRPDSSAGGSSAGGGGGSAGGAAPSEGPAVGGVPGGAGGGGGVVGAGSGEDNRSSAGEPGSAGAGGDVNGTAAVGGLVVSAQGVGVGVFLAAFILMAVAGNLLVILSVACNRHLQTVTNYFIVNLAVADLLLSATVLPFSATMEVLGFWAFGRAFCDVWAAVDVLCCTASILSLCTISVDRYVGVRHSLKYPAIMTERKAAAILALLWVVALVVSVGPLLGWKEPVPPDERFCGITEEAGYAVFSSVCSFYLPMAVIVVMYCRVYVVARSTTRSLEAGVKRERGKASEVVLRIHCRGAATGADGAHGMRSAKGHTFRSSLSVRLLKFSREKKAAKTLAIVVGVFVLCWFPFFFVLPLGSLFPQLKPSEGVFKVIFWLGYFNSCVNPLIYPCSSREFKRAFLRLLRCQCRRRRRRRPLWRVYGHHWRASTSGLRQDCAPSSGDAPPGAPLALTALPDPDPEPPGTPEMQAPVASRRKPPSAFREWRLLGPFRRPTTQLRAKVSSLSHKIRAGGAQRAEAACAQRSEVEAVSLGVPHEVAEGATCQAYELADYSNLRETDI
As to the kind of experiment: Radioligand binding, adrenergic α1D ([3H]Prazosin).

As for `Cc1ccc2c(c1)c1c(n2CC(O)c2ccncc2)CCN2CCCC12` (single isomer, unassigned) [129d], the inverse agonist activity entry in test [1] was “showed inverse agonist activity”.

In the case of `Cc1ccc2c(c1)c1c(n2CC(O)c2ccncc2)CCN(C)C1` (single isomer, unassigned) [3b], in test [2], the inhibition constant (Ki) worked out at 258 nM.
